Results: ChEMBL document CHEMBL4400575, “PROTAC Molecules for the Treatment of Autoimmune Disorders” (ACS Med Chem Lett, 2019)

Molecular target: Protein cereblon (Homo sapiens, UniProt Q96SW2)
Assay: Displacement of (-)-thalidomide-alexa fluor/pomalidomide-fluorescein conjugated probe from […] fused CRBN (unknown origin) measured after 60 mins by fluorescence polarization assay

Sequence of Protein cereblon (Q96SW2 whole entry, the tested form may be a part): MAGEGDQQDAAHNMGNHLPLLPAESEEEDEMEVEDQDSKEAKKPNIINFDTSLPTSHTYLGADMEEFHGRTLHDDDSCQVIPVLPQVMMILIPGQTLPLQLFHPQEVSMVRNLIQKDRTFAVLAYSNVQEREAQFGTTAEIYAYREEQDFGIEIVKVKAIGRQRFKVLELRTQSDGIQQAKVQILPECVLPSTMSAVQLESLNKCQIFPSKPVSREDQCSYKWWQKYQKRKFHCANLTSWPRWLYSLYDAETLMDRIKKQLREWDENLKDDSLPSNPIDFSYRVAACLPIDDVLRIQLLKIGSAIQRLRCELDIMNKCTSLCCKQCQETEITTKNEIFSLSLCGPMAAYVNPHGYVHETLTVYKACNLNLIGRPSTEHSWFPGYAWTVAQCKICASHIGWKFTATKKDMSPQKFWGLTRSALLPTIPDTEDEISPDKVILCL

| SMILES | Kd [µM] |
| --- | --- |
| CN1CCN(c2ccc(NC3CCC(=O)NC3=O)cc2)CC1 (stereo not drawn) | ≤ 10 |
| O=C1CCC(Nc2ccccc2N2CCOCC2)C(=O)N1 (stereo not drawn) | 10 to 50 |
| Cc1sc2c(c1C)C(c1ccc(Cl)cc1)=N[C@@H](CC(=O)NCCCCCCCCN1CCN(c3ccc(NC4CCC(=O)NC4=O)cc3)CC1)c1nnc(C)n1-2 (stereo partly drawn) | ≤ 10 |
| N#Cc1ccc(-c2ccc(OC3CCC(=O)NC3=O)cc2)cc1 (stereo not drawn) | ≤ 10 |
| COc1cccc(N(C)C2CCC(=O)NC2=O)c1 (stereo not drawn) | ≤ 10 |

Now from value to compound:

| Kd [µM] | SMILES |
| --- | --- |
| ≤ 10 | CC(=O)CCc1ccc(OC2CCC(=O)NC2=O)cc1 (stereo not drawn) |
| ≤ 10 | CC(C)(C)OC(=O)N1CCN(c2ccc(OC3CCC(=O)NC3=O)cc2)CC1 (stereo not drawn) |
| ≤ 10 | Cc1nnc2n1-c1ccc(-c3cnn(CCCCCCN4CCN(c5ccc(NC6CCC(=O)NC6=O)cc5)CC4)c3)cc1C(c1ccc(Cl)cc1)=NC21CC1 (stereo not drawn) |
